What was measured:
Format in all cases: in vivo, C57BL/6 mice
[1] = system: mice with carotid artery thrombus; assay: Survival rate within 24 hours after administration; settings: tPA 10 mg/kg alone
Method: Mice were anesthetized via intraperitoneal injection by pentobarbital sodium (2%, 45 mg/kg), and neck kin was sterilized. A median incision was cut on the neck, exposed and isolated to obtain arteria carotis communis; a waterproof cushion was used to isolate arteria carotis communis with the length of about 2.5-3 mm from surrounding tissues. The isolated arteria carotis communis was wrapped by a filter paper soaked by 10% FeCl3 for about 1 mm (width), and the filter paper was removed 3 minutes later, the outside of blood vessel was washed by 0.9% normal saline. The waterproof cushion was removed. The neck incision was sutured. The start of Fe3+ stimulation was defined as the beginning of ischemia, and those mice meeting the following conditions were selected into the group: the blood vessel was blocked at the maximum diameter of the neck thrombus 10 minutes after ischemia; the blood flow of the carotid artery distal end was less than 20% of the base value 15 minutes after ischemia; and the thrombus was stable 4.5 hours after ischemia (before reperfusion); the carotid artery vessel at 60% and more of the diameter was blocked by the maximum diameter of the thrombus.
Mice were treated by medicaments or normal saline according to random grouping results 4.5 hours after ischemia. Mice femoral vein was intubated, and left femoral vein was injected tPA (tissue plasminogen activator) or normal saline; right femoral vein was injected the traditional Chinese medicinal composition of the present invention or normal saline; 10% of the total dose was injected via an injection pump, and the rest 90% were continuously injected intravenously for 1 hour with the rate of 0.1 ml/h. Three proportion groups were selected to the traditional Chinese medicinal composition of the present invention respectively below:
The survival rate, neurological scoring, change of carotid artery ischemia size and change of cerebral blood flow perfusion of mice after reperfused for 24 hours were recorded; and the optimal drug concentration was selected for further analysis.

[2] = system: mice with carotid artery thrombus; assay: 18-Score Modified Neurological Severity Score, mice
Method: Neurological scoring was conducted to each group of […] after reperfused for 3 hours and 24 hours based upon scoring standards (18 scores), as shown in table 2:
Another scoring method is introduced hereafter. Modified neurological severity scores, mNSS, the score is within the range of 0-18. The scoring method is referring to 1.4 of Example 1.
18-Score Modified Neurological Severity Score (normal mice=0; the higher the score is, the more severe the nerve injury is), and a 15-score standard (normal mice=15, dead mice=0) are applied.

[3] = system: brain surface postcapillary venule; assay: Plasma albumin leakage of brain surface postcapillary venule; settings: 24 h after administration; tPA 10 mg/kg alone; T541 20 mg/kg + tPA 10 mg/kg
Method: Plasma albumin leakage: femoral venous cannula of mice was conducted under a stereoscopic microscope (PE/08, outer diameter: 0.36 mm and inner diameter: 0.20 mm). Mice were fixed on an observation board for brain microcirculation in prone position; parietal skin of mice was cut off to expose right parietal bone; the whole parietal bone was thinned by grinding by a hand-held cranial drill till there is only one layer of soft bone cortex under the stereoscopic microscope. FITC-labelled plasma albumin (excitation wavelength: 420-490 nm, emission wavelength: 520 nm) was slowly injected via femoral vein. 10 minutes later, fluorescence images of postcapillary venule, artery in the dominant region of middle cerebral artery and artery in the dominant region of anterior cerebral artery among […] (diameter) on the surface of the mice brain after reperfused for 24 hours by an upright fluorescent microscope linked to hypersensitive fluorescent CCD; then leakage of plasma albumin was analyzed. Fluorescence intensity inside (Iv) and outside (Ii) venule was calculated by an image analysis software ImageJ (Bethesda, Md., USA); the leakage of plasma albumin is denoted by Ii/Iv.

[4] = system: cerebral infarction; assay: TTC infarct size, mice after thrombolysis; settings: 24 h after administration, tPA 10 mg/kg alone, T541 20 mg/kg + tPA 10 mg/kg
Method: After reperfused for 24 hours, mice were perfused via heart by a PBS buffer precooled at 4° C. and separated brain via craniotomy; the brain was cut from front to back into 5 slices in a brain stereotaxic apparatus; bleeding condition was rapidly shoot in cold condition; then slices were put into 2% triphenyltetrazolium chloride, TTC for incubation for 15 minutes at […]; TTC staining was conducted. Non-infarct region was stained red and infarct region was not stained and still white. Brain TTC staining images were shoot and IamgeJ (Bethesda, Md., USA) was used to calculate a percentage of TTC staining infarct size in the total area of brain, and evaluate the degree of cerebral infarction.

[5] = system: MDA; assay: ELISA of MDA in brain tissue; settings: brain tissue 24 hours after administration; tPA 10 mg/kg alone or + T541 20 mg/kg or ingredients at Table 7 doses
Excerpt: To compare the therapeutical effect on reperfusion injury caused by tPA thrombolysis between the traditional Chinese medicinal composition of the present invention and each ingredient (total saponins of Astragalus, the experiment was divided into the following group (tPA is combined with T541, individual ingredient thereof and compatibility of any two ingredients) specifically as follows: tPA+total saponins of Astragalus (tPA+HQ), tPA+ salvianolic acids (tPA+DS), tPA+Panax notoginseng saponins (tPA+SQ), tPA+ total saponins of Astragalus+salvianolic acids (tPA+HQ+DS), tPA+ total saponins of Astragalus+Panax notoginseng saponins (tPA+HQ+SQ), tPA+ salvianolic acids+Panax notoginseng saponins (tPA+DS+SQ) and tPA+T541. Normal saline served as an isovolumetric control. The usage number in each group is 6.
ELISA adsorption kit was used to measure the change on the content of MDA, 8-hydroxyl-2′-deoxyguanosine (8-OHdG), adenosine triphosphate (ATP), adenosine diphosphate (ADP) and adenosine monophosphate (AMP) in the penumbra field of brain tissue cortex of the mode, and the change on the activity of mitochondrial complexes I, II, IV and V. 6 samples were used to repeat the independent experiment for at least three times for each group of data.

[6] = T141 12 mg/kg, T582 15 mg/kg each + tPA 10 mg/kg
[7] = T541 20 mg/kg, T141 12 mg/kg, T582 15 mg/kg each + tPA 10 mg/kg

tPA: tissue-type plasminogen activator (tPA) for thrombolysis
survival rate (%), 6 h after administration [1, 6]: 70.00%
survival rate (%), 12 h after administration [1, 6]: 60.00%
survival rate (%), 18 h after administration ([1]; T541 20 mg/kg + tPA 10 mg/kg): 50.00%
survival rate (%), 0 h after administration [1, 7]: 100.00%
survival rate (%), 24 h after administration [1, 7]: 50%
18-Score Modified Neurological Severity Score ([2]; 24 hours after administration, normal = 0, tPA 10 mg/kg alone, T541 20 mg/kg, T141 12 mg/kg, T582 15 mg/kg each + tPA 10 mg/kg): 7.45 ± 0.73
neurological scoring 24 hours after administration (in words) ([2]; tPA alone, low/medium/high-dose T541 + tPA): may not improve the neurological scoring
Albumin exudation ratio of venule % [3]: 125.10 ± 3.53 %
Infarct size [4]: 15.68 ± 4.81
MDA [5]: 30.08 ± 2.90

Reference: patent publication US20210038668A1, “TRADITIONAL CHINESE MEDICINE COMPOSITION FOR PREVENTING AND/OR TREATING ISCHEMIC REPERFUSION INJURY” (TASLY PHARMACEUTICAL GROUP CO., LTD., priority 2018, published 2021)
